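Following 48 hours of exposure in 96-well plates, responses at five concentrations were used to interpolate endpoints linearly. GI50: concentration for 50% inhibition of growth.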 Calls of active or inactive are those of the source. Rule as the data show it: active = GI50 up to about 1.1 µM and inactive = higher.
Experiments:
Assay in all cases: growth of human tumour cells (NCI), 48 h
OVCAR-8 = system: OVCAR-8
A498 = system: A498
KM12 = system: KM12
NCI-H226 = system: NCI-H226
IGROV-1 = system: IGROV-1
786-0 = system: 786-0
ACHN = system: ACHN
CAKI-1 = system: CAKI-1
SF-295 = system: SF-295
RXF 393 = system: RXF 393
U-251 = system: U-251
HCC 2998 = system: HCC 2998
EKVX = system: EKVX
MOLT-4 = system: MOLT-4
NCI-H522 = system: NCI-H522
DU-145 = system: DU-145
MDA-MB-231 = system: MDA-MB-231
NCI/ADR-RES = system: NCI/ADR-RES

Structure (SMILES)	GI50 (OVCAR-8)	GI50 (A498)	GI50 (KM12)	GI50 (NCI-H226)	GI50 (IGROV-1)	GI50 (786-0)	GI50 (ACHN)	GI50 (CAKI-1)	GI50 (SF-295)	GI50 (RXF 393)	GI50 (U-251)	GI50 (HCC 2998)	GI50 (EKVX)	GI50 (MOLT-4)	GI50 (NCI-H522)	GI50 (DU-145)	GI50 (MDA-MB-231)	GI50 (NCI/ADR-RES)
CCOC(=O)c1cccc(=O)c(C(=O)OCC)c1	43.4 µM (inactive)	> 100 µM (inactive)	3.27 µM (inactive)	19.1 µM (inactive)	74 µM (inactive)	63.2 µM (inactive)	63.7 µM (inactive)	77.3 µM (inactive)	2.38 µM (inactive)	36.2 µM (inactive)	32.4 µM (inactive)	> 100 µM (inactive)	> 100 µM (inactive)	35.7 µM (inactive)	–	–	–	–
CC(C)(C)c1cc(C#N)c2c(c1)C(=O)OC2(c1ccccc1)c1ccccc1C#N (configuration not stated)	> 100 µM (inactive)	> 100 µM (inactive)	43 µM (inactive)	> 100 µM (inactive)	> 100 µM (inactive)	> 100 µM (inactive)	> 100 µM (inactive)	> 100 µM (inactive)	78.3 µM (inactive)	> 100 µM (inactive)	> 100 µM (inactive)	–	> 100 µM (inactive)	23.8 µM (inactive)	12.3 µM (inactive)	–	–	–
COc1ccc(C(c2c(O)c3ccccc3n(C)c2=O)c2c(O)c3ccccc3n(C)c2=O)cc1	81.1 µM (inactive)	–	22.4 µM (inactive)	24.5 µM (inactive)	71.8 µM (inactive)	28.1 µM (inactive)	46.5 µM (inactive)	38.2 µM (inactive)	36.5 µM (inactive)	73.3 µM (inactive)	19.1 µM (inactive)	40.2 µM (inactive)	34.8 µM (inactive)	35.9 µM (inactive)	9.77 µM (inactive)	–	–	–
O=C(Nc1ccccc1)c1cc2ccccc2c(/N=N/c2ccc([N+](=O)[O-])cc2)c1O	> 100 µM (inactive)	–	> 100 µM (inactive)	> 100 µM (inactive)	> 100 µM (inactive)	86.3 µM (inactive)	> 100 µM (inactive)	> 100 µM (inactive)	38.7 µM (inactive)	82.4 µM (inactive)	31.4 µM (inactive)	–	> 100 µM (inactive)	17 µM (inactive)	> 100 µM (inactive)	> 100 µM (inactive)	71.9 µM (inactive)	> 100 µM (inactive)
CCOc1ccc2c(c1)[n+]([O-])c(-c1ccc([N+](=O)[O-])cc1)c(N)[n+]2[O-]	> 100 µM (inactive)	> 100 µM (inactive)	> 100 µM (inactive)	> 100 µM (inactive)	> 100 µM (inactive)	> 100 µM (inactive)	> 100 µM (inactive)	> 100 µM (inactive)	> 100 µM (inactive)	> 100 µM (inactive)	> 100 µM (inactive)	–	> 100 µM (inactive)	52.2 µM (inactive)	56.4 µM (inactive)	–	–	–
CNC(=O)OCc1cc2ccncc2c2c1[nH]c1ccccc12	11.5 µM (inactive)	–	5.09 µM (inactive)	> 100 µM (inactive)	> 26.9 µM (inactive)	26.7 µM (inactive)	5.47 µM (inactive)	3.21 µM (inactive)	> 100 µM (inactive)	2.55 µM (inactive)	> 39.7 µM (inactive)	> 58.5 µM (inactive)	> 100 µM (inactive)	4.05 µM (inactive)	20.7 µM (inactive)	–	–	–
CC(C)(C)OC(=O)NC1CCC[C@H]1O (some centres not stated)	> 100 µM (inactive)	> 100 µM (inactive)	> 100 µM (inactive)	> 100 µM (inactive)	–	> 100 µM (inactive)	> 100 µM (inactive)	> 100 µM (inactive)	> 100 µM (inactive)	> 100 µM (inactive)	> 100 µM (inactive)	> 100 µM (inactive)	> 100 µM (inactive)	> 100 µM (inactive)	> 100 µM (inactive)	–	–	–
COC(=O)CC1CCN(C#N)CC1CC[N+](=O)[O-] (configuration not stated)	> 100 µM (inactive)	> 100 µM (inactive)	> 100 µM (inactive)	> 100 µM (inactive)	> 100 µM (inactive)	> 100 µM (inactive)	> 100 µM (inactive)	> 100 µM (inactive)	–	> 100 µM (inactive)	> 100 µM (inactive)	> 100 µM (inactive)	–	> 100 µM (inactive)	> 100 µM (inactive)	–	–	–
CCOC(=O)c1ccc(N[C@@H]2c3cc4c(cc3C(C3=CC(=O)C(=O)C(OC)=C3)[C@H]3C(=O)OCC32)OCO4)cc1 (some centres not stated)	2.86 µM (inactive)	1.77 µM (inactive)	3.92 µM (inactive)	–	5.78 µM (inactive)	1.6 µM (inactive)	0.9 µM (active)	0.634 µM (active)	1.35 µM (inactive)	2.84 µM (inactive)	0.995 µM (active)	4.6 µM (inactive)	3.73 µM (inactive)	0.215 µM (active)	4.61 µM (inactive)	–	–	–

Reference: ChEMBL document CHEMBL1201862, “PubChem BioAssay data set” (2004)
